These results are taken from patent US10301282B2, “Polymorphic form X of nilotinib dihydrochloride hydrate” (Cipla Limited, priority 2015, dated 2019).

The conditions of data set [1]: as described in U.S. Pat. No. 8,163,904; cited from earlier work.
The conditions of data set [2]: as described in U.S. Pat. No. 8,163,904; cited from earlier work. The source holds these as a separate data set.
Data set [3] in a line: Intrinsic dissolution study in 0.1 N HCl. It is filed as physicochemical. The settings on record: at 15 minutes time interval, conventional intrinsic dissolution assembly. Here is the method: Intrinsic dissolution studies were conducted on nilotinib dihydrochloride Form X and nilotinib monohydrochloride monohydrate in 0.1 N HCl using a conventional intrinsic dissolution assembly.

The next data set can be described thus: Hygroscopicity. It counts as physicochemical.

Counter-ions that a name gives are not always drawn. Like-named read-outs stand apart in the source and are kept apart here.

In the case of `Cc1cn(-c2cc(NC(=O)c3ccc(C)c(Nc4nccc(-c5cccnc5)n4)c3)cc(C(F)(F)F)c2)cn1` [Form B, nilotinib hydrochloride monohydrate], in data set [1], the hygroscopicity entry is recorded as “hygroscopic”. Also, in data set [2], the solubility in water result is recorded as “very slightly soluble in water”. Take `Cc1cn(-c2cc(NC(=O)c3ccc(C)c(Nc4nccc(-c5cccnc5)n4)c3)cc(C(F)(F)F)c2)cn1` [nilotinib dihydrochloride Form X, nilotinib dihydrochloride hydrate]: in data set [3] (dihydrochloride hydrate), the “release (intrinsic dissolution)” value was 109%. In the data set “Hygroscopicity”, the hygroscopicity entry is listed as “substantially non-hygroscopic”.

Take `Cc1cn(-c2cc(NC(=O)c3ccc(C)c(Nc4nccc(-c5cccnc5)n4)c3)cc(C(F)(F)F)c2)cn1` [nilotinib monohydrochloride monohydrate]: the “release (intrinsic dissolution)” value in data set [3] (monohydrochloride monohydrate) is listed as 114%.
